Experimental data reported in US9090593B2, “Bicyclic compounds as Pim inhibitors” (AMGEN INC., priority 2010, dated 2015).
Read-outs that look alike come from different tables or passages of the source.

How the values were obtained:
[1] = target: T1, full length recombinant Pim-3 protein (Homo sapiens, UniProt Q86V86); test: Pim-3 enzyme assay (HTRF, phosphorylation of biotinylated-BAD (S112) peptide); format: biochemical; details: read-out: Pim3 IC50
T1 construct: by full length recombinant Pim-1, Pim-2, or Pim-3 protein; purchased Millipore (UK)
Summary of the method: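 Full-length recombinant Pim-3 phosphorylates biotinylated BAD (S112) peptide in 60 mM Hepes pH 7.0, 0.05% BSA, 2 mM DTT; reaction stopped with 3 mM EDTA. Phospho-BAD detected by HTRF (Eu anti-phospho-BAD S112 antibody, streptavidin-APC). IC50 from percent-of-control values fitted to a 4-parameter logistic model.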

[2] = target: T2, Pim-2 stably transfected into the U2OS human osteogenic sarcoma line (Homo sapiens, UniProt Q9P1W9); test: Pim cell assay, phospho-BAD normalized against total BAD, U2OS stably transfected with Pim-2; format: cell-based; details: read-out: Pim2_Cell_IC50; note: high dose 31.6 µM
T2 construct: expressed in transfected cells; host or cells: U2OS human osteogenic sarcoma line
T2 sequence (Q9P1W9 whole entry): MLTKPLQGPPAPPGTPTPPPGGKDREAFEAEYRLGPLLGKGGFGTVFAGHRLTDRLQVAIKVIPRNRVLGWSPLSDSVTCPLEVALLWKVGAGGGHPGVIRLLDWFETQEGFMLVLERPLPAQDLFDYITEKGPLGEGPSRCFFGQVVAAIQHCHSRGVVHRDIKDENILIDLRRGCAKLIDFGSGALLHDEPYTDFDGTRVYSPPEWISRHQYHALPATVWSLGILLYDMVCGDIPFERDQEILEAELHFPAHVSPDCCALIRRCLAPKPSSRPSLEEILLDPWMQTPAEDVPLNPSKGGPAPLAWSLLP
Summary of the method: (§1)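 U2OS cells stably expressing Pim-1 or Pim-2 were plated overnight at 37 °C, then dosed over a 10-point curve (final 0.3% DMSO; DMSO alone as high control). Lysates assayed for phospho- and total BAD by Meso Scale immunoassay; % phosphoprotein = (2×phospho)/(phospho+total)×100.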

[3] = target: T3, Pim-1 stably transfected into the U2OS human osteogenic sarcoma line (Homo sapiens, UniProt P11309); test: Pim cell assay, phospho-BAD normalized against total BAD, U2OS stably transfected with Pim-1; format: cell-based; details: read-out: Pim1_Cell_IC50
T3 construct: expressed in transfected cells; host or cells: U2OS human osteogenic sarcoma line
T3 sequence (P11309 whole entry): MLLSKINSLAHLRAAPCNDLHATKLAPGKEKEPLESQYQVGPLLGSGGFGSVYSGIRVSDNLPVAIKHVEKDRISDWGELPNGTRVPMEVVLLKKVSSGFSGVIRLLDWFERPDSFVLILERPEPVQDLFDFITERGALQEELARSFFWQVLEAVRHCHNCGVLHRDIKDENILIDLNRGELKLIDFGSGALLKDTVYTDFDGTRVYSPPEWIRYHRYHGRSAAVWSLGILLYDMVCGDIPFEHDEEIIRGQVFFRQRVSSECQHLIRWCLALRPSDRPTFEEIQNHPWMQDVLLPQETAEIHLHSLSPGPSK
Summary of the method: as §1

[4] = target: T4, full length recombinant Pim-1 protein (Homo sapiens, UniProt P11309); test: Pim-1 enzyme assay (HTRF, phosphorylation of biotinylated-BAD (S112) peptide); format: biochemical; details: enzyme assay, Pim-1; read-out: Pim_1_IC50
T4 construct: by full length recombinant Pim-1, Pim-2, or Pim-3 protein; hexahistidine tag followed by a thrombin cleavage site (N); made in house; host or cells: Sf9 (baculovirus) or E. coli (pET28)
T4 sequence (P11309 whole entry): as above
Summary of the method: (§2)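 Full-length His-tagged Pim-1 or Pim-2 (Sf9 or E. coli expressed, purified) phosphorylated biotinylated BAD (S112) peptide in 60 mM Hepes pH 7.0, 0.05% BSA, 2 mM DTT. Reaction stopped with 3 mM EDTA; phospho-BAD read by HTRF with Eu anti-phospho-BAD antibody and streptavidin-APC. IC50 from percent of control by 4-parameter logistic fit.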

[5] = target: T5, full length recombinant Pim-2 protein (Homo sapiens, UniProt Q9P1W9); test: Pim-2 enzyme assay (HTRF, phosphorylation of biotinylated-BAD (S112) peptide); format: biochemical; details: enzyme assay, Pim-2; read-out: Pim2_IC50
T5 construct: by full length recombinant Pim-1, Pim-2, or Pim-3 protein; hexahistidine tag followed by a thrombin cleavage site (N); made in house; host or cells: Sf9 (baculovirus) or E. coli (pET28)
T5 sequence (Q9P1W9 whole entry): as the sequence (Q9P1W9 whole entry) above
Summary of the method: as §2

[6] = U2OS cells stably transfected with Pim-2, phospho-BAD, high dose […]
[7] = U2OS cells stably transfected with Pim-1, phospho-BAD, high dose […]

NC1CCN(c2cncc(-c3n[nH]c4ccc(-c5cccc(F)c5)cc34)n2)CC1 [Example 7, 1-(6-(5-(3-Fluorophenyl)-1H-indazol-3-yl)pyrazin-2-yl)piperidin-4-amine]
IC50 [1]: 3 nM
IC50 [2, 6]: > 31600 nM
IC50 [3, 7]: 748 nM
IC50 [4]: 4 nM
IC50 [5]: 25 nM

Fc1cccc(F)c1-c1ccc2[nH]cc(-c3cncc(OC4CCNCC4)n3)c2c1 [Example 206, 5-(2,6-difluorophenyl)-3-(6-(4-piperidinyloxy)-2-pyrazinyl)-1H-indole]
IC50 [1]: 6 nM
IC50 [2, 6]: 20400 nM
IC50 [3, 7]: 326 nM
IC50 [4]: 2 nM
IC50 [5]: 54 nM

Fc1cccc(F)c1-c1ccc2[nH]cc(-c3nccc(O[C@@H]4CCCNC4)n3)c2c1 [Example 209, 5-(2,6-difluorophenyl)-3-(4-((3R)-3-piperidinyloxy)-2-pyrimidinyl)-1H-indole]
IC50 [1]: 49 nM
IC50 [2]: 30300 nM
IC50 [3]: 1180 nM
IC50 [4]: 36 nM
IC50 [5]: 89 nM

CC(C)Oc1cccc(-c2ccc3[nH]nc(-c4cncc(N5CCC(N)CC5)n4)c3c2)n1 [Example 64, 1-(6-(5-(6-(1-methylethoxy)-2-pyridinyl)-1H-indazol-3-yl)-2-pyrazinyl)-4-piperidinamine]
IC50 [1]: 16 nM
IC50 [2, 6]: > 31600 nM
IC50 [3, 7]: 3020 nM
IC50 [4]: 20 nM
IC50 [5]: 150 nM

c1cc2[nH]nc(-c3cncc(O[C@@H]4CCCNC4)n3)c2cc1-c1cncc(NC2CC2)n1 [Example 158, N-cyclopropyl-6-(3-(6-((3R)-3-piperidinyloxy)-2-pyrazinyl)-1H-indazol-5-yl)-2-pyrazinamine]
IC50 [1]: 1 nM
IC50 [2, 6]: > 15800 nM
IC50 [3, 7]: 36 nM
IC50 [4]: 1 nM
IC50 [5]: 121 nM

NC1CCN(c2cncc(-c3n[nH]c4ccc(-c5ccccc5O)cc34)n2)CC1 [Example 72, 2-(3-(6-(4-amino-1-piperidinyl)-2-pyrazinyl)-1H-indazol-5-yl)phenol]
IC50 [1]: 5 nM
IC50 [2, 6]: > 31600 nM
IC50 [3, 7]: 533 nM
IC50 [4]: 3 nM
IC50 [5]: 82 nM

Fc1cccc(F)c1-c1ccc2[nH]cc(-c3cncc(NC4CCNCC4)n3)c2c1 [Example 205, 6-(5-(2,6-difluorophenyl)-1H-indol-3-yl)-N-4-piperidinyl-2-pyrazinamine]
IC50 [1]: 4 nM
IC50 [2, 6]: 4330 nM
IC50 [3, 7]: 273 nM
IC50 [4]: 4 nM
IC50 [5]: 29 nM

NC1CCN(c2cncc(-c3n[nH]c4ccc(-c5cnc6ccccc6c5)cc34)n2)CC1 [Example 55, 1-(6-(5-(3-quinolinyl)-1H-indazol-3-yl)-2-pyrazinyl)-4-piperidinamine]
IC50 [1]: 1 nM
IC50 [2, 6]: > 31600 nM
IC50 [3, 7]: 287 nM
IC50 [4]: 1 nM
IC50 [5]: 51 nM

CC(C)Oc1cncc(-c2ccc3[nH]cc(-c4ccnc(N)c4)c3c2)n1 [Example 28, 4-(5-(6-(1-methylethoxy)-2-pyrazinyl)-1H-indol-3-yl)-2-pyridinamine]
IC50 [1]: 12 nM
IC50 [2]: 11300 nM
IC50 [3]: 1400 nM
IC50 [4]: 32 nM
IC50 [5]: 271 nM

CC(C)NC(=O)c1ccc(F)c(-c2ccc3[nH]nc(-c4cncc(N5CCC(N)CC5)n4)c3c2)c1 [Example 44, 3-(3-(6-(4-amino-1-piperidinyl)-2-pyrazinyl)-1H-indazol-5-yl)-4-fluoro-N-(1-methylethyl)benzamide]
IC50 [1]: 4 nM
IC50 [2, 6]: 4580 nM
IC50 [3, 7]: 932 nM
IC50 [4]: 7 nM
IC50 [5]: 5 nM

NC1CCN(c2cncc(-c3n[nH]c4ccc(-c5cc(=O)[nH]cc5Cl)cc34)n2)CC1 [Example 74, 4-(3-(6-(4-amino-1-piperidinyl)-2-pyrazinyl)-1H-indazol-5-yl)-5-chloro-2(1H)-pyridinone]
IC50 [1]: 15 nM
IC50 [2, 6]: > 31600 nM
IC50 [3, 7]: > 31600 nM
IC50 [4]: 14 nM
IC50 [5]: 54 nM
